Patent US7196110B2, “N-substituted tricyclic 3-aminopyrazoles as inhibitors for the treatment of cell proliferative disorders” (Janssen Phamaceutica N.V., priority 2002, dated 2007)

Legend:
[1] = target: T1, PDGF-receptor beta enzyme comprising the tyrosine kinase domain (Homo sapiens, UniProt P09619); experiment: Inhibition of PDGF-receptor kinase activity (cell-free, PLC1 peptide, 33P Flashplate); format: biochemical; details: PDGF-R kinase activity; for inhibition at 10 µM: compound at 10 uM, read-out: Percent Inhibition @ 10 uM; for IC50: read-out: IC50
T1 construct: from amino acid 545 to 1106 of GenBank Access NO: AAA36427
T1 sequence (P09619 545-1106): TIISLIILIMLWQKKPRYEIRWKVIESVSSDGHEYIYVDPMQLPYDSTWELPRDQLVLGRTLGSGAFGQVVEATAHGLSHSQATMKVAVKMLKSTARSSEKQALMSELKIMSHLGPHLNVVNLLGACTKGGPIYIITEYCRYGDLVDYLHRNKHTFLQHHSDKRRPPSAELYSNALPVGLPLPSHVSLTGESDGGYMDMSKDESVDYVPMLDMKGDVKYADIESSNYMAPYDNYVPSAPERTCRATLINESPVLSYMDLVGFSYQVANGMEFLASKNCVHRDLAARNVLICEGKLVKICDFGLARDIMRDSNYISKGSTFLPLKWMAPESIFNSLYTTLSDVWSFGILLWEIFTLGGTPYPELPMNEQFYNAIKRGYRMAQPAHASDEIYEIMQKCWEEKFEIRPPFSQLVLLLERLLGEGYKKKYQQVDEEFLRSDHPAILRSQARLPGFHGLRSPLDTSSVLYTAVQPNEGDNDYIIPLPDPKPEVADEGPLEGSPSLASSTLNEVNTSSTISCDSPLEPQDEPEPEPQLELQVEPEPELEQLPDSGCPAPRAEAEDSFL
Summary of the method: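 The IC50 is the inhibitor level halving kinase activity relative to inhibitor-free wells, measured as 33P captured on a streptavidin-bound biotin-PLC1 peptide. The reaction ran 60 min at 30 °C in pH 8 Tris buffer with 1 mM DTT, 5 μM ATP and the 545–1106 kinase-domain enzyme.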

[2] = target: c-Abl kinase (Abelson murine leukemia virus, UniProt P00521); experiment: Inhibition of c-Abl kinase activity (cell-free, Abl peptide substrate, 33P Flashplate); format: biochemical; details: IC50 for the c-Abl kinase activity
Sequence of c-Abl kinase (P00521 115-385): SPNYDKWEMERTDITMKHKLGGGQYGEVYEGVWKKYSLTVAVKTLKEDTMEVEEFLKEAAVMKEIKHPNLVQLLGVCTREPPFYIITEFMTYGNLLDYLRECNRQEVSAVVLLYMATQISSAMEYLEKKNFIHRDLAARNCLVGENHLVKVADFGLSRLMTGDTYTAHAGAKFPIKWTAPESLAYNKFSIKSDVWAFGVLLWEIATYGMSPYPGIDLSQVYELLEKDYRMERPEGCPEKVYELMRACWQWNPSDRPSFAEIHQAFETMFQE

Structure (SMILES)	inhibition at 10 µM [1]	IC50 [1]	IC50 [2]
OCC(O)COc1cccc2c1Cc1c-2n[nH]c1Nc1cccc(Br)c1 (centres unmarked) [Compound 468, 3-[3-(3-Bromo-phenylamino)-2,4-dihydro-indeno[1,2-c]pyrazol-5-yloxy]-propane-1,2-diol]	95.5%	47.8 nM	603 nM
CCOc1cc2c(cc1OCCCO)Cc1c-2n[nH]c1Nc1cccc(OC)c1 [Compound 384, 3-[7-Ethoxy-3-(3-methoxy-phenylamino)-2,4-dihydro-indeno[1,2-c]pyrazol-6-yloxy]-propan-1-ol]	100%	5.61 nM	4 nM
COc1cc2c(cc1OC)-c1c(c(Nc3cccc(F)c3)nn1C(=O)COC(C)=O)C2 [Compound 467, Acetic acid 2-[3-(3-fluoro-phenylamino)-6,7-dimethoxy-4H-indeno[1,2-c]pyrazol-1-yl]-2-oxo-ethyl ester]	96.5%	17.6 nM	244 nM
COc1cc(Nc2[nH]nc3c2Cc2cc(F)ccc2-3)cc(OC)c1 [Compound 204, (3,5-Dimethoxy-phenyl)-(6-fluoro-2,4-dihydro-indeno[1,2-c]pyrazol-3-yl)-amine]	90%	38 nM	165 nM
COc1cc2c(cc1OC)-c1n[nH]c(Nc3cccc(C(N)=O)c3)c1C2 [Compound 116, 3-(6,7-Dimethoxy-2,4-dihydro-indeno[1,2-c]pyrazol-3-ylamino)-benzamide]	96%	5.3 nM	386 nM
COc1ccc(Nc2[nH]nc3c2Cc2cc(F)ccc2-3)cc1OC [Compound 205, (3,4-Dimethoxy-phenyl)-(6-fluoro-2,4-dihydro-indeno[1,2-c]pyrazol-3-yl)-amine]	86%	47 nM	328 nM
CCCC(=O)OCn1nc(Nc2cccc(F)c2)c2c1-c1cc(OC)c(OC)cc1C2 [Compound 490, Butyric acid 3-(3-fluoro-phenylamino)-6,7-dimethoxy-4H-indeno[1,2-c]pyrazol-1-ylmethyl ester]	96%	28.5 nM	38 nM
Nc1ccc2c(c1)Cc1c-2n[nH]c1Nc1cccc(Cl)c1 [Compound 119, N3-(3-Chloro-phenyl)-2,4-dihydro-indeno[1,2-c]pyrazole-3,6-diamine]	90%	19.8 nM	524 nM
CCOc1cccc(Nc2[nH]nc3c2Cc2cc(OCCCO)c(OCCCO)cc2-3)c1 [Compound 401, 3-[3-(3-Ethoxy-phenylamino)-7-(3-hydroxy-propoxy)-2,4-dihydro-indeno[1,2-c]pyrazol-6-yloxy]-propan-1-ol]	98.5%	22 nM	14 nM
CCC1c2cc(OC)c(OC)cc2-c2n[nH]c(Nc3cccc(Cl)c3)c21 (centres unmarked) [Compound 419, (3-Chloro-phenyl)-(4-ethyl-6,7-dimethoxy-2,4-dihydro-indeno[1,2-c]pyrazol-3-yl)-amine]	100%	62.1 nM	292 nM
CCOc1cccc(Nc2[nH]nc3c2Cc2cc(OCC(O)CO)c(OC)cc2-3)c1 (centres unmarked) [Compound 379, 3-[3-(3-Ethoxy-phenylamino)-7-methoxy-2,4-dihydro-indeno[1,2-c]pyrazol-6-yloxy]-propane-1,2-diol]	100%	8.12 nM	14 nM
COc1cc2c(cc1OCC(O)CN1CCCC1)Cc1c-2n[nH]c1Nc1cccnc1 (centres unmarked) [Compound 281, 1-[7-Methoxy-3-(pyridin-3-ylamino)-2,4-dihydro-indeno[1,2-c]pyrazol-6-yloxy]-3-pyrrolidin-1-yl-propan-2-ol]	67%	2.6 nM	1580 nM
COc1cc2c(cc1OCC(O)CO)Cc1c-2n[nH]c1Nc1cccnc1 (centres unmarked) [Compound 263, 3-[7-Methoxy-3-(pyridn-3-ylamino)-2,4-dihydro-indeno[1,2-c]pyrazol-6-yloxy]-propane-1,2-diol]	103%	46 nM	512 nM
CCOc1cc2c(cc1OCCCO)-c1n[nH]c(Nc3cccnc3)c1C2 [Compound 371, 3-[6-Ethoxy-3-(pyridin-3-ylamino)-2,4-dihydro-indeno[1,2-c]pyrazol-7-yloxy]-propan-1-ol]	100%	47.6 nM	905 nM
Fc1ccc(Nc2[nH]nc3c2oc2ccccc23)cc1Cl [Compound 381, (3-Chloro-4-fluoro-phenyl)-(2H-8-oxa-2,3-diaza-cyclopenta[a]inden-1-yl)-amine]	100%	54.9 nM	1500 nM
COc1cc2c(cc1OC)-c1n[nH]c(Nc3cccc(SC)c3)c1C2 [Compound 208, (6,7-Dimethoxy-2,4-dihydro-indeno[1,2-c]pyrazol-3-yl)-(3-methylsulfanyl-phenyl)-amine]	82%	3 nM	9 nM
OCCCOc1cc2c(cc1OCCCO)-c1n[nH]c(Nc3cccc(Cl)c3)c1C2 [Compound 373, 3-[3-(3-Chloro-phenylamino)-7-(3-hydroxy-propoxy)-2,4-dihydro-indeno[1,2-c]pyrazol-6-yloxy]-propan-1-ol]	100%	3.77 nM	10 nM
COc1cccc(Nc2[nH]nc3c2Cc2cc(OCC(O)CN4CCCC4)c(OC)cc2-3)c1 (centres unmarked) [Compound 270, 1-[7-Methoxy-3-(3-methoxy-phenylamino)-2,4-dihydro-indeno[1,2-c]pyrazol-6-yloxy]-3-pyrrolidin-1-yl-propan-2-ol]	107%	0.429 nM	36 nM
COCCCOc1cc2c(cc1OCCCOC)-c1n[nH]c(Nc3ccc(F)c(Cl)c3)c1C2 [Compound 287, [6,7-Bis-(3-methoxy-propoxy)-2,4-dihydro-indeno[1,2-c]pyrazol-3-yl]-(3-Chloro-4-fluoro-phenyl)-amine]	92.5%	26.2 nM	3450 nM
COc1cccc(Nc2[nH]nc3c2Cc2cc(N)ccc2-3)c1 [Compound 118, N3-(3-Methoxy-phenyl)-2,4-dihydro-indeno[1,2-c]pyrazole-3,6-diamine]	74%	21.3 nM	427 nM
COc1cc2c(cc1OC)-c1n[nH]c(Nc3cccc(C)c3)c1C2 [Compound 32, (6,7-Dimethoxy-2,4-dihydro-indeno[1,2-c]pyrazol-3-yl)-m-tolyl-amine]	79%	–	2 nM
COc1cccc(Nc2[nH]nc3c2Cc2cc(OCCCN4CCCC4)c(OC)cc2-3)c1 [Compound 156, (3-Methoxy-phenyl)-[7-methoxy-6-(3-pyrrolidin-1-yl-propoxy)-2,4-dihydro-indeno[1,2-c]pyrazol-3-yl]-amine]	87.5%	1 nM	89 nM
COc1cc2c(cc1OCCCN1CCOCC1)Cc1c-2n[nH]c1Nc1cccc(Br)c1 [Compound 130, (3-Bromo-phenyl)-[7-methoxy-6-(3-morpholin-4-yl-propoxy)-2,4-dihydro-indeno[1,2-c]pyrazol-3-yl]-amine]	94.5%	2.15 nM	236 nM
COc1cc2c(cc1OCCCN1CCCC1)Cc1c-2n[nH]c1Nc1ccc(F)c(Cl)c1 [Compound 181, (3-Chloro-4-fluoro-phenyl)-[7-methoxy-6-(3-pyrrolidin-1-yl-propoxy)-2,4-dihydro-indeno[1,2-c]pyrazol-3-yl]-amine]	74.5%	15.4 nM	56 nM
